Reference: PubChem BioAssay AID588725 (The Scripps Research Institute Molecular Screening Center, 2011)
Activity calls are given as the source filed them.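 Rule for the calls: active = versus DMSO control, mean enzyme activity at or below 80% or at or above 120%; inactive = between 80% and 120% mean enzyme activity.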

Tests used:
Assay in all cases: modulation of a 48-kinase panel, late-stage follow-up, selectivity assay for KLF5 inhibitor project, biochemical, 33P-ATP radiometric, Reaction Biology, powder sample (AID 588725)
Aurora A = settings: 33P-ATP radiometric activity, at 10 µM
CDK5/p25 = settings: 33P-ATP radiometric activity, at 10 µM
CDK5/p35 = settings: 33P-ATP radiometric activity, at 10 µM
[1] = target: Cyclin-dependent kinase 1 (Homo sapiens) (UniProt P06493); settings: 33P-ATP radiometric activity, at 10 µM
Cyclin-dependent kinase 1 (Homo sapiens), sequence (P06493 whole entry, looked up): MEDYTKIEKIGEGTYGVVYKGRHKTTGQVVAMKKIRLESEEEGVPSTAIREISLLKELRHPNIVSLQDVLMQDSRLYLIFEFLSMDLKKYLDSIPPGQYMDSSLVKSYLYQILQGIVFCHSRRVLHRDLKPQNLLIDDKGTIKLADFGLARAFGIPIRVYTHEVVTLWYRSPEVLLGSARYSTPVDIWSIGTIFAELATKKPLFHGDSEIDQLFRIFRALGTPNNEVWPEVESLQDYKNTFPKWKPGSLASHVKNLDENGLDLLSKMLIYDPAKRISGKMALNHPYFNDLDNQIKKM

[2] = target: Cyclin-dependent kinase 2 (Homo sapiens) (UniProt P24941); settings: 33P-ATP radiometric activity, at 10 µM
[3] = target: Dual specificity mitogen-activated protein kinase kinase 1 (Homo sapiens) (UniProt Q02750); settings: 33P-ATP radiometric activity, MEK1, at 10 µM
[4] = target: Epidermal growth factor receptor (Homo sapiens) (UniProt P00533); settings: 33P-ATP radiometric activity, EGFR, at 10 µM
Epidermal growth factor receptor (Homo sapiens), sequence (P00533 whole entry, looked up): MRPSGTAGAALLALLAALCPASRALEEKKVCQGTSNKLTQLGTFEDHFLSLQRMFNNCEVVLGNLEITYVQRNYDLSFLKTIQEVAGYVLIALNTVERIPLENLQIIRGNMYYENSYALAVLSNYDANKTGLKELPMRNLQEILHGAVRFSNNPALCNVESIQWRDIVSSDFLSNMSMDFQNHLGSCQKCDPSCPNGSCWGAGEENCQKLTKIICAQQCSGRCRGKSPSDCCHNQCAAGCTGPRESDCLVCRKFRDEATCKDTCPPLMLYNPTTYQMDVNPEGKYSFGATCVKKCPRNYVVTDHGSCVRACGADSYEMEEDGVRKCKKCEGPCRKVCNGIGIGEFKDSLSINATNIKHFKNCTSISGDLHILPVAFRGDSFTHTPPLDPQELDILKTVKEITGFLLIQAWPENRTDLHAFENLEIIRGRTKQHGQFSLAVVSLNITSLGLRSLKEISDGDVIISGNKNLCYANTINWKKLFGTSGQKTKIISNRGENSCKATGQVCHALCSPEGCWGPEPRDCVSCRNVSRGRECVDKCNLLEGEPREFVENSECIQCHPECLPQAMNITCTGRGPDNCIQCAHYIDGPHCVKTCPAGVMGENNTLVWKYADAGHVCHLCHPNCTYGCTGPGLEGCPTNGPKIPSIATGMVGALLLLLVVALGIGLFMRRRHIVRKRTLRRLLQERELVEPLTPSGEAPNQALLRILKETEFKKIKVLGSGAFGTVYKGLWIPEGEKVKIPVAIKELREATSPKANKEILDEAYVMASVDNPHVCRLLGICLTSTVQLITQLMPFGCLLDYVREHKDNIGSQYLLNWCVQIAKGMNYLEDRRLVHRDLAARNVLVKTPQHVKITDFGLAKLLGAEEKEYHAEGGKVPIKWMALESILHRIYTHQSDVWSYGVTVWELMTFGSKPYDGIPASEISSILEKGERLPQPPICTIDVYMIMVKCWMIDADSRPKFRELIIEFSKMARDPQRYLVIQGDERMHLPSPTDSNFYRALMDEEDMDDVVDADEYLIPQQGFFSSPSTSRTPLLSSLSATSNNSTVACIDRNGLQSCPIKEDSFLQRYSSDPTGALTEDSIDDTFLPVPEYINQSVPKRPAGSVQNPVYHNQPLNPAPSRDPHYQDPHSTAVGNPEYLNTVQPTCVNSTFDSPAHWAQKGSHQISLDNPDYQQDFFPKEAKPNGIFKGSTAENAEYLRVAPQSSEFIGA

[5] = target: Glycogen synthase kinase-3 alpha (Homo sapiens) (UniProt P49840); settings: 33P-ATP radiometric activity, GSK3a, at 10 µM
[6] = target: Glycogen synthase kinase-3 beta (Homo sapiens) (UniProt P49841); settings: 33P-ATP radiometric activity, GSK3b, at 10 µM
[7] = target: Inhibitor of nuclear factor kappa-B kinase subunit alpha (Homo sapiens) (UniProt O15111); settings: 33P-ATP radiometric activity, IKKa, at 10 µM
Inhibitor of nuclear factor kappa-B kinase subunit alpha (Homo sapiens), sequence (O15111 whole entry, looked up): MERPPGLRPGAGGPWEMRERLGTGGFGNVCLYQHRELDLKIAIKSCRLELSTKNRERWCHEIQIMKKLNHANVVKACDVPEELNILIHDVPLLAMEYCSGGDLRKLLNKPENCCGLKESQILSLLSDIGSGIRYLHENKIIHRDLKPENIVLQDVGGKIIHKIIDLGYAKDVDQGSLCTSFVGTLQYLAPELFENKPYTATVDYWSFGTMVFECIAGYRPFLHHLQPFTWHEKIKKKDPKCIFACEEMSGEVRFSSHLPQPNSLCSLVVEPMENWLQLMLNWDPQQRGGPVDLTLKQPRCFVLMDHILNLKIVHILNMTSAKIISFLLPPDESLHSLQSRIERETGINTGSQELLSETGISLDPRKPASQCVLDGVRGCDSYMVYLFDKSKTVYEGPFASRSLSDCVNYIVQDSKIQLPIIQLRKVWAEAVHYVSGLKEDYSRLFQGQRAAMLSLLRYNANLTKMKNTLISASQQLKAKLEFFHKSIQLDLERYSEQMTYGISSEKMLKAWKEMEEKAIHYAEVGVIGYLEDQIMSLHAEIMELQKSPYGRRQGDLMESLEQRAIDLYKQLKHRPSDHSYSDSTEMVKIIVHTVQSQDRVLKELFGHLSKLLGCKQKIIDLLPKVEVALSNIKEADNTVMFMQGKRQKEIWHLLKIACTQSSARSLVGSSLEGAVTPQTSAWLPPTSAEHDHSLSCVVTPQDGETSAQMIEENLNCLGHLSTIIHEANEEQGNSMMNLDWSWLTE

[8] = target: Inhibitor of nuclear factor kappa-B kinase subunit beta (Homo sapiens) (UniProt O14920); settings: 33P-ATP radiometric activity, IKKb, at 10 µM
Inhibitor of nuclear factor kappa-B kinase subunit beta (Homo sapiens), sequence (O14920 whole entry, looked up): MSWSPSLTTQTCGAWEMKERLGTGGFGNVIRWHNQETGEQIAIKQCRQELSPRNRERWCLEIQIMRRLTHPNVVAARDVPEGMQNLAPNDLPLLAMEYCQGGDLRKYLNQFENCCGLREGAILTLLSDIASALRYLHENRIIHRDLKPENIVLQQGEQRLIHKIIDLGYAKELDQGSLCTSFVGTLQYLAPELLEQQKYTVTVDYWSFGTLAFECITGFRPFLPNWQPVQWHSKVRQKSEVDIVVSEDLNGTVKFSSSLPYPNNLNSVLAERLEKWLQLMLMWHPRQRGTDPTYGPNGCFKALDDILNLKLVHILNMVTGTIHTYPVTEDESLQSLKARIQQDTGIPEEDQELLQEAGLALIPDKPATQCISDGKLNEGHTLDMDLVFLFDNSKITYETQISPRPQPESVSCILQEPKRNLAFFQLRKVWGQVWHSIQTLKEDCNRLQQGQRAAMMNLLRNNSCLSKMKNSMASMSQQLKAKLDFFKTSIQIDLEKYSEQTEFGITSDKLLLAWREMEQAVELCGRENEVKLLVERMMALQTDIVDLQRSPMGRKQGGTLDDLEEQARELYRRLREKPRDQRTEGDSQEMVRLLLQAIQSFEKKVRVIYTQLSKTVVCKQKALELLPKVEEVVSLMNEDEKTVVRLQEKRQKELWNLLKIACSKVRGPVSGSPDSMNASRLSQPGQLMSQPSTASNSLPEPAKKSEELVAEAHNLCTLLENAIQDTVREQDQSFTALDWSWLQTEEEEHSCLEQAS

JAK1 = settings: 33P-ATP radiometric activity, at 10 µM
JNK1 = settings: 33P-ATP radiometric activity, at 10 µM
MEK2 = settings: 33P-ATP radiometric activity, at 10 µM
MEKK2 = settings: 33P-ATP radiometric activity, at 10 µM
MEKK3 = settings: 33P-ATP radiometric activity, at 10 µM
MKK6 = settings: 33P-ATP radiometric activity, at 10 µM
MLK3 = settings: 33P-ATP radiometric activity, at 10 µM
[9] = target: Mitogen-activated protein kinase 1 (Homo sapiens) (UniProt P28482); settings: 33P-ATP radiometric activity, ERK2, at 10 µM
[10] = target: Mitogen-activated protein kinase 10 (Homo sapiens) (UniProt P53779); settings: 33P-ATP radiometric activity, JNK3, at 10 µM
[11] = target: Mitogen-activated protein kinase 12 (Homo sapiens) (UniProt P53778); settings: 33P-ATP radiometric activity, P38g, at 10 µM
[12] = target: Mitogen-activated protein kinase 14 (Homo sapiens) (UniProt Q16539); settings: 33P-ATP radiometric activity, P38a, at 10 µM
[13] = target: Mitogen-activated protein kinase 3 (Homo sapiens) (UniProt P27361); settings: 33P-ATP radiometric activity, ERK1, at 10 µM
[14] = target: Mitogen-activated protein kinase 9 (Homo sapiens) (UniProt P45984); settings: 33P-ATP radiometric activity, JNK2, at 10 µM
P38b = settings: 33P-ATP radiometric activity, at 10 µM
P38d = settings: 33P-ATP radiometric activity, at 10 µM
PKCa = settings: 33P-ATP radiometric activity, at 10 µM
PKCb1 = settings: 33P-ATP radiometric activity, at 10 µM
PKCb2 = settings: 33P-ATP radiometric activity, at 10 µM
PKCepsilon = settings: 33P-ATP radiometric activity, at 10 µM
PKCeta = settings: 33P-ATP radiometric activity, at 10 µM
[15] = target: Protein kinase C delta type (Homo sapiens) (UniProt Q05655); settings: 33P-ATP radiometric activity, PKCd, at 10 µM
Protein kinase C delta type (Homo sapiens), sequence (Q05655 whole entry, looked up): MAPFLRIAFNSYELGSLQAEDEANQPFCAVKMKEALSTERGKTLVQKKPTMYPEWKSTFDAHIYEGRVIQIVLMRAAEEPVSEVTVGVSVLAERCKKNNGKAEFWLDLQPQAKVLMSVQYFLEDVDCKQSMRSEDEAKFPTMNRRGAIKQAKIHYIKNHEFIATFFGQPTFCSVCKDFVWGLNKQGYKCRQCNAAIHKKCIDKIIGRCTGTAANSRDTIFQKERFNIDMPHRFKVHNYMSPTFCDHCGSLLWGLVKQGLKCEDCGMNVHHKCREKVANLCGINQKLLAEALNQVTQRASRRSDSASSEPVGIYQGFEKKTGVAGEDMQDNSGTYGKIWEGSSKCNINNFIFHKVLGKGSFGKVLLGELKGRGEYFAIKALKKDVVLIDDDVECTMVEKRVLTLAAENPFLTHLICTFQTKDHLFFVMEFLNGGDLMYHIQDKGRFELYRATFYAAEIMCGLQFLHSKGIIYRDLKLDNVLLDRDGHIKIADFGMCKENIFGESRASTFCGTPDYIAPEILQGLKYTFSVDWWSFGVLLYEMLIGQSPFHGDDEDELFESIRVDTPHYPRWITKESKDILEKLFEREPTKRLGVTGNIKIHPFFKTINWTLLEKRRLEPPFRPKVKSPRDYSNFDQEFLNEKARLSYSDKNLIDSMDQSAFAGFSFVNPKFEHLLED

[16] = target: Protein kinase C gamma type (Homo sapiens) (UniProt P05129); settings: 33P-ATP radiometric activity, PKCg, at 10 µM
[17] = target: Protein kinase C iota type (Homo sapiens) (UniProt P41743); settings: 33P-ATP radiometric activity, PKCiota, at 10 µM
Protein kinase C iota type (Homo sapiens), sequence (P41743 whole entry, looked up): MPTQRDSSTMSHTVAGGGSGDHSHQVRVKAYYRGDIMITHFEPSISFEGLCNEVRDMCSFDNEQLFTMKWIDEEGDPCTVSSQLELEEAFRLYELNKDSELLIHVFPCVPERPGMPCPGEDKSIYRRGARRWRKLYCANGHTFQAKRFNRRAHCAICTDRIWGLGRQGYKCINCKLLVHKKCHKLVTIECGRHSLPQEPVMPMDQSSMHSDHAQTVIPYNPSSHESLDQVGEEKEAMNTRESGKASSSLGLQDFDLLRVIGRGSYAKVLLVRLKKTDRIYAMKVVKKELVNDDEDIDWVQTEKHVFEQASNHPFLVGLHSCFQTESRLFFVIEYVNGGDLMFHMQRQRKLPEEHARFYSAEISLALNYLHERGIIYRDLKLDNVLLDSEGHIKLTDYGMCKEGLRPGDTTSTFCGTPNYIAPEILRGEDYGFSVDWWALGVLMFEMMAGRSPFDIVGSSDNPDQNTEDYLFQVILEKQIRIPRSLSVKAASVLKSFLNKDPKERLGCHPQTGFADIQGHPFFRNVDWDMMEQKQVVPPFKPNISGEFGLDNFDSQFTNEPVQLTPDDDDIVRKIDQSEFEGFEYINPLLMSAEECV

[18] = target: Protein kinase C theta type (Homo sapiens) (UniProt Q04759); settings: 33P-ATP radiometric activity, PKCtheta, at 10 µM
[19] = target: Protein kinase C zeta type (Homo sapiens) (UniProt Q05513); settings: 33P-ATP radiometric activity, PKCzeta, at 10 µM
[20] = target: RAC-alpha serine/threonine-protein kinase (Homo sapiens) (UniProt P31749); settings: 33P-ATP radiometric activity, AKT1, at 10 µM
[21] = target: RAC-beta serine/threonine-protein kinase (Homo sapiens) (UniProt P31751); settings: 33P-ATP radiometric activity, AKT2, at 10 µM
[22] = target: RAC-gamma serine/threonine-protein kinase (Homo sapiens) (UniProt Q9Y243); settings: 33P-ATP radiometric activity, AKT3, at 10 µM
[23] = target: Receptor tyrosine-protein kinase erbB-2 (Homo sapiens) (UniProt P04626); settings: 33P-ATP radiometric activity, ERBB2, at 10 µM
[24] = target: Receptor tyrosine-protein kinase erbB-4 (Homo sapiens) (UniProt Q15303); settings: 33P-ATP radiometric activity, ERBB4, at 10 µM
[25] = target: Ribosomal protein S6 kinase beta-1 (Homo sapiens) (UniProt P23443); settings: 33P-ATP radiometric activity, p70S6K, at 10 µM
[26] = target: Serine/threonine-protein kinase B-raf (Homo sapiens) (UniProt P15056); settings: 33P-ATP radiometric activity, BRAF, at 10 µM
[27] = target: Serine/threonine-protein kinase D1 (Homo sapiens) (UniProt Q15139); settings: 33P-ATP radiometric activity, PKCmu, at 10 µM
[28] = target: Serine/threonine-protein kinase D3 (Homo sapiens) (UniProt O94806); settings: 33P-ATP radiometric activity, PKCnu, at 10 µM
p70S6Kb = settings: 33P-ATP radiometric activity, at 10 µM

enzyme activity (Aurora A): 95.4% (inactive)
enzyme activity (CDK5/p25): 108% (inactive)
enzyme activity (CDK5/p35): 106% (inactive)
enzyme activity ([1]; CDK1/cyclin A): 106% (inactive)
enzyme activity ([1]; CDK1/cyclin B): 103% (inactive)
enzyme activity ([2]; CDK2/cyclin A): 95.5% (inactive)
enzyme activity ([2]; CDK2/cyclin E): 113% (inactive)
enzyme activity [3]: 108% (inactive)
enzyme activity [4]: 98% (inactive)
enzyme activity [5]: 104% (inactive)
enzyme activity [6]: 112% (inactive)
enzyme activity [7]: 97.3% (inactive)
enzyme activity [8]: 107% (inactive)
enzyme activity (JAK1): 91.3% (inactive)
enzyme activity (JNK1): 101% (inactive)
enzyme activity (MEK2): 105% (inactive)
enzyme activity (MEKK2): 102% (inactive)
enzyme activity (MEKK3): 99.6% (inactive)
enzyme activity (MKK6): 103% (inactive)
enzyme activity (MLK3): 101% (inactive)
enzyme activity [9]: 101% (inactive)
enzyme activity [10]: 102% (inactive)
enzyme activity [11]: 105% (inactive)
enzyme activity [12]: 96.3% (inactive)
enzyme activity [13]: 103% (inactive)
enzyme activity [14]: 108% (inactive)
enzyme activity (P38b): 95.7% (inactive)
enzyme activity (P38d): 98.3% (inactive)
enzyme activity (PKCa): 99.6% (inactive)
enzyme activity (PKCb1): 98.5% (inactive)
enzyme activity (PKCb2): 102% (inactive)
enzyme activity (PKCepsilon): 100% (inactive)
enzyme activity (PKCeta): 107% (inactive)
enzyme activity [15]: 104% (inactive)
enzyme activity [16]: 100% (inactive)
enzyme activity [17]: 103% (inactive)
enzyme activity [18]: 98.8% (inactive)
enzyme activity [19]: 102% (inactive)
enzyme activity [20]: 104% (inactive)
enzyme activity [21]: 107% (inactive)
enzyme activity [22]: 98.7% (inactive)
enzyme activity [23]: 104% (inactive)
enzyme activity [24]: 97% (inactive)
enzyme activity [25]: 104% (inactive)
enzyme activity [26]: 100% (inactive)
enzyme activity [27]: 106% (inactive)
enzyme activity [28]: 105% (inactive)
enzyme activity (p70S6Kb): 100% (inactive)
Structure (SMILES): CN(C(=O)CNC(=O)/C=C/c1cccc(Cl)c1)C1CCS(=O)(=O)CC1
